Results taken from PubChem BioAssay AID2060897 (Molecular Pharmacology Branch, DTP, NCI, 2025).
Each block holds one molecule with its values, some of them ahead of it.

Tested on: 966289-007-R4-J1-PDC complex spheroid viability
Assay: Anticancer human tumor 966289-007-R4-J1-PDC patient-derived pancreatic adenocarcinoma cell line growth inhibition [RAS]
Details: for IC50: curve of first compound; for viability, T/C: stronger effect = lower value
In short: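 Agents were tested in combination matrices in half-log decrements from a top concentration at or near clinical Cmax (10 microM if undetermined). Targets were multi-cell spheroids of tumour lines plus HUVEC and MSC stromal cells.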

[1] = second compound 0.000949 µM, first compound 0.0316 µM
[2] = second compound 0.000949 µM, first compound 0.1 µM
[3] = second compound 0.000949 µM, first compound 0.316 µM
[4] = second compound 0.000949 µM, first compound 1 µM
[5] = second compound 0.003 µM, first compound 0.0316 µM
[6] = second compound 0.003 µM, first compound 0.1 µM
[7] = second compound 0.003 µM, first compound 0.316 µM
[8] = second compound 0.003 µM, first compound 1 µM
[9] = second compound 0.00949 µM, first compound 0.0316 µM
[10] = second compound 0.00949 µM, first compound 0.1 µM
[11] = second compound 0.00949 µM, first compound 0.316 µM
[12] = second compound 0.00949 µM, first compound 1 µM
[13] = second compound 0.03 µM, first compound 0.0316 µM
[14] = second compound 0.03 µM, first compound 0.1 µM
[15] = second compound 0.03 µM, first compound 0.316 µM
[16] = second compound 0.03 µM, first compound 1 µM
[17] = second compound 0.0949 µM, first compound 0.0316 µM
[18] = second compound 0.0949 µM, first compound 0.1 µM
[19] = second compound 0.0949 µM, first compound 0.316 µM
[20] = second compound 0.0949 µM, first compound 1 µM
[21] = second compound 0.3 µM, first compound 0.0316 µM
[22] = second compound 0.3 µM, first compound 0.1 µM
[23] = second compound 0.3 µM, first compound 0.316 µM
[24] = second compound 0.3 µM, first compound 1 µM
[25] = second compound 0.000949 µM, first compound 3.16 µM
[26] = second compound 0.000949 µM, first compound 10 µM
[27] = second compound 0.003 µM, first compound 3.16 µM
[28] = second compound 0.003 µM, first compound 10 µM
[29] = second compound 0.00949 µM, first compound 3.16 µM
[30] = second compound 0.00949 µM, first compound 10 µM
[31] = second compound 0.03 µM, first compound 3.16 µM
[32] = second compound 0.03 µM, first compound 10 µM
[33] = second compound 0.0949 µM, first compound 3.16 µM
[34] = second compound 0.0949 µM, first compound 10 µM
[35] = second compound 0.3 µM, first compound 3.16 µM
[36] = second compound 0.3 µM, first compound 10 µM
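Note: spheroids exposed to agents for one week before readout.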
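Throughout, for viability, T/C: percent viability relative to DMSO vehicle control wells as 100%.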

IC50 (second compound 0.000949 µM): > 1 µM | IC50 (second compound 0.003 µM): > 1 µM | IC50 (second compound 0.00949 µM): > 1 µM | IC50 (second compound 0.03 µM): > 1 µM | IC50 (second compound 0.0949 µM): > 1 µM | IC50 (second compound 0.3 µM): > 1 µM
SMILES: CCN1CCN(Cc2ccc(Nc3ncc(F)c(-c4cc(F)c5nc(C)n(C(C)C)c5c4)n3)nc2)CC1 + CCn1c(-c2cccnc2C(C)OC)c2c3cc(ccc31)N1CCOC(CC(NC(=O)C(C(C)C)N(C)C(=O)C3(F)CCN(C(=O)C#CC(C)(C)N(C)C)CC3)C(=O)N3CCCC(N3)C(=O)OCC(C)(C)C2)C1
viability, T/C (second compound 0.000949 µM, first compound 0.00316 µM): 107% | viability, T/C (second compound 0.000949 µM, first compound 0.01 µM): 84.9% | viability, T/C [1]: 104% | viability, T/C [2]: 81.3% | viability, T/C [3]: 85.6% | viability, T/C [4]: 79.3% | viability, T/C (second compound 0.003 µM, first compound 0.00316 µM): 106% | viability, T/C (second compound 0.003 µM, first compound 0.01 µM): 78.2% | viability, T/C [5]: 93.7% | viability, T/C [6]: 79.8% | viability, T/C [7]: 93.4% | viability, T/C [8]: 84.1% | viability, T/C (second compound 0.00949 µM, first compound 0.00316 µM): 69.9% | viability, T/C (second compound 0.00949 µM, first compound 0.01 µM): 90.2% | viability, T/C [9]: 104% | viability, T/C [10]: 90.4% | viability, T/C [11]: 90% | viability, T/C [12]: 78.5% | viability, T/C (second compound 0.03 µM, first compound 0.00316 µM): 77.8% | viability, T/C (second compound 0.03 µM, first compound 0.01 µM): 83.3% | viability, T/C [13]: 99.5% | viability, T/C [14]: 81.4% | viability, T/C [15]: 90.9% | viability, T/C [16]: 78.9% | viability, T/C (second compound 0.0949 µM, first compound 0.00316 µM): 78.4% | viability, T/C (second compound 0.0949 µM, first compound 0.01 µM): 99.6% | viability, T/C [17]: 112% | viability, T/C [18]: 99.8% | viability, T/C [19]: 94.4% | viability, T/C [20]: 79.9% | viability, T/C (second compound 0.3 µM, first compound 0.00316 µM): 83.3% | viability, T/C (second compound 0.3 µM, first compound 0.01 µM): 88.6% | viability, T/C [21]: 101% | viability, T/C [22]: 87.7% | viability, T/C [23]: 91% | viability, T/C [24]: 81.3%

IC50 (second compound 0.000949 µM): > 10 µM | IC50 (second compound 0.003 µM): > 10 µM | IC50 (second compound 0.00949 µM): > 10 µM | IC50 (second compound 0.03 µM): > 10 µM | IC50 (second compound 0.0949 µM): > 10 µM | IC50 (second compound 0.3 µM): > 10 µM
SMILES: Cc1nc(N2CCC3(CC2)COC(C)C3N)c(CO)nc1Sc1ccnc(N)c1Cl (stereo unspecified) + CCn1c(-c2cccnc2C(C)OC)c2c3cc(ccc31)N1CCOC(CC(NC(=O)C(C(C)C)N(C)C(=O)C3(F)CCN(C(=O)C#CC(C)(C)N(C)C)CC3)C(=O)N3CCCC(N3)C(=O)OCC(C)(C)C2)C1
viability, T/C [1]: 123% | viability, T/C [2]: 90.2% | viability, T/C [3]: 119% | viability, T/C [4]: 70.1% | viability, T/C [25]: 67.3% | viability, T/C [26]: 84.8% | viability, T/C [5]: 89.2% | viability, T/C [6]: 89.6% | viability, T/C [7]: 84.7% | viability, T/C [8]: 80.3% | viability, T/C [27]: 86.4% | viability, T/C [28]: 88.9% | viability, T/C [9]: 80.4% | viability, T/C [10]: 83.1% | viability, T/C [11]: 87% | viability, T/C [12]: 90.5% | viability, T/C [29]: 84% | viability, T/C [30]: 82.2% | viability, T/C [13]: 92.4% | viability, T/C [14]: 84.7% | viability, T/C [15]: 89.1% | viability, T/C [16]: 82.6% | viability, T/C [31]: 74.7% | viability, T/C [32]: 97.3% | viability, T/C [17]: 68.9% | viability, T/C [18]: 101% | viability, T/C [19]: 95.9% | viability, T/C [20]: 90.3% | viability, T/C [33]: 106% | viability, T/C [34]: 76.1% | viability, T/C [21]: 95.7% | viability, T/C [22]: 89.2% | viability, T/C [23]: 93.4% | viability, T/C [24]: 144% | viability, T/C [35]: 122% | viability, T/C [36]: 114%

IC50 (second compound 0.000949 µM): > 10 µM | IC50 (second compound 0.003 µM): > 10 µM | IC50 (second compound 0.00949 µM): > 10 µM | IC50 (second compound 0.03 µM): > 10 µM | IC50 (second compound 0.0949 µM): > 10 µM | IC50 (second compound 0.3 µM): > 10 µM
SMILES: NC1c2ccccc2OC12CCN(c1cnc3c(N4CCCc5ncccc54)n[nH]c3n1)CC2 (stereo unspecified) + CCn1c(-c2cccnc2C(C)OC)c2c3cc(ccc31)N1CCOC(CC(NC(=O)C(C(C)C)N(C)C(=O)C3(F)CCN(C(=O)C#CC(C)(C)N(C)C)CC3)C(=O)N3CCCC(N3)C(=O)OCC(C)(C)C2)C1
viability, T/C [1]: 113% | viability, T/C [2]: 81.5% | viability, T/C [3]: 109% | viability, T/C [4]: 69.6% | viability, T/C [25]: 82.1% | viability, T/C [26]: 74.5% | viability, T/C [5]: 113% | viability, T/C [6]: 59% | viability, T/C [7]: 102% | viability, T/C [8]: 63.4% | viability, T/C [27]: 91.9% | viability, T/C [28]: 96.9% | viability, T/C [9]: 92.4% | viability, T/C [10]: 76.4% | viability, T/C [11]: 77.6% | viability, T/C [12]: 88.4% | viability, T/C [29]: 104% | viability, T/C [30]: 93.2% | viability, T/C [13]: 62.7% | viability, T/C [14]: 73.7% | viability, T/C [15]: 96.9% | viability, T/C [16]: 74.3% | viability, T/C [31]: 104% | viability, T/C [32]: 94.8% | viability, T/C [17]: 80.9% | viability, T/C [18]: 91.1% | viability, T/C [19]: 128% | viability, T/C [20]: 91.8% | viability, T/C [33]: 117% | viability, T/C [34]: 107% | viability, T/C [21]: 94.4% | viability, T/C [22]: 89.3% | viability, T/C [23]: 96% | viability, T/C [24]: 103% | viability, T/C [35]: 147% | viability, T/C [36]: 91.9%
